Consider 26 compounds from publication PMC6014686, “Thienopyrimidinone Based Sirtuin-2 (SIRT2)-Selective Inhibitors Bind in the Ligand Induced Selectivity Pocket” (Journal of Medicinal Chemistry, 2017).

The test system of assay [1] is acetylated (lysine-40) α-tubulin in MCF-7 cells. Put plainly: Tubulin acetylation assay, Western blot in MCF-7 cells with TSA. Conditions: 0-50 μM for 24 h with 50 nM TSA, N = 3. A general note: In western blotting, separated proteins are transferred to a membrane and probed.
The target of assay [2] is T1, SIRT2 (Homo sapiens, UniProt Q8IXJ6).
T1 sequence (Q8IXJ6 1-389): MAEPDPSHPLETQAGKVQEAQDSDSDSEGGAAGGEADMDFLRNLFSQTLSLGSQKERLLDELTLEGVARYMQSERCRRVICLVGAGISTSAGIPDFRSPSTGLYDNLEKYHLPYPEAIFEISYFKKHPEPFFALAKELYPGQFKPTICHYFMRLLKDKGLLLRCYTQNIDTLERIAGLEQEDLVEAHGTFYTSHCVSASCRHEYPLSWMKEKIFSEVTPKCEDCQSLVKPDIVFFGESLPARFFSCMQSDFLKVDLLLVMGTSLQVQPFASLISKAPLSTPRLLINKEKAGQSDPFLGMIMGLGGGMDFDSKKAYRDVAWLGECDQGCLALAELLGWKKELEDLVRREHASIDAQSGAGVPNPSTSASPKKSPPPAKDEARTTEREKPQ
Put plainly: SIRT2 enzymatic assay with fluorogenic p53 peptide substrate RHKK(Ac)-AMC. Type of assay: biochemical. Conditions: for increase in potency over 9a: SIRT2 IC50 ratio to 9a. As for the experimental part: The newly synthesized analogues, based on our previously validated thienopyrimidinone scaffold, were designed to contain a variety of N-3 (columns a–i, Table 1) and N-7′ substituents (rows 9–49, Table 1), with the aim to conduct a relatively broad survey of the SAR features of this scaffold. These compounds were all synthesized according to the previously disclosed method[81] (Schemes SS1 and SS2, Supporting Information) and assessed as racemates. SIRT2 inhibitory activity was assessed using a validated SIRT2 assay, based on a fluorogenic peptide substrate derived from p53 (see Experimental Section). For this assay, suramin was used as a positive control and gave similar inhibitory activity to that observed previously.[83] A vehicle (DMSO) was used as the negative control. SIRT2 inhibitory activity was measured at two compound concentrations, 1 μM (n = 2) and 10 μM (n = 2) for all compounds.
Enzymatic assays were performed by Reaction Biology Corporation (http://www.reactionbiology.com) as described before.[81] In vitro SIRT assays were conducted by using the fluorogenic peptide substrate from p53 residues 379–382 RHKK(Ac)-AMC for SIRT1–3. The assay buffer contained 50 mM Tris-HCl, pH 8.0, 137 mM NaCl, 2.7 mM KCl, 1 mM MgCl2, 1 mg mL^–1 bovine serum albumin, and 1% DMSO. The protocol involved a two-step procedure. The fluorogenic substrate with the acetylated lysine side chain was incubated with the SIRT enzyme to produce the deacetylated products, which were then digested in the second step by the addition of a developer to produce the fluorescent signal proportional to the amount of deacetylated substrates. Deacetylation of substrate peptides was used as a read out of the SIRT activity. All compounds were freshly prepared as 10 mM stock solutions in DMSO and serially diluted to the indicated concentration in the reaction. All test compounds were preincubated with the human SIRTs for about 10 min before commencing the reaction through the addition of substrate. Fluorescence was read (λex, 360 nm; λem, 460 nm) using an EnVision Multilabel Plate Reader (PerkinElmer). The percentages of enzyme activity (relative to DMSO controls) and IC50 values were calculated using the GraphPad Prism 4 program based on a sigmoidal dose–response equation. The number of replicates is stated in the corresponding text.

The subject of the next assay is SIRT1. The following applies: Figure 1; differing in vitro assays and conditions; cited from earlier work.
The subject of assay [3] is SIRT2. Further details: method as in PMID 15780941, PMID 26982234, PMID 25275824, PMID 11483616, PMID 16618762. Conditions: Figure 1; differing in vitro assays and conditions; cited from earlier work.
Setting [4] is: supplement CSV, SIRT2, 10uM, read-out: Inhibition@10uM.

“Also recorded” adds a separate entry of the source. Like-named read-outs stand apart in the source and are kept apart here.

On to `O=c1c2c3c(sc2ncn1Cc1ccccc1)CC(NCC1CCCO1)CC3` (stereo not shown) [25g], for which the “effect on α-tubulin acetylation level” value in assay [1] is listed as “no effect on tubulin acetylation levels; also recorded: showed no effect on the acetylation of α-tubulin”. Moreover, the “SIRT2 inhibitory activity (in words)” value on SIRT2 [2] is reported as “lacking in vitro activity against SIRT2”.

Take `COc1ccc(Cn2cnc3sc4c(c3c2=O)CCC(NCc2cccc(Cl)c2)C4)c2ccccc12` (stereo not shown) [12c]: the inhibition (in general, the relative decrease from the control value, in per cent) at 10 µM at SIRT2 [2] (10 μM compound, n = 2, read-out: SIRT2 percentage inhibition (at 10 μM)) was -6.5%; on SIRT2 [2] (setting [4]), -6.5%.

Consider `COc1cccc(Cn2cnc3sc4c(c3c2=O)CCC(NCc2ccco2)C4)c1` (stereo not shown) [28h], for which, on SIRT2 [2] (setting [4]), the inhibition at 10 µM was determined as 33.4%.

`O=c1c2c3c(sc2ncn1Cc1ccccc1)CC(NCCc1cccnc1)CC3` (stereo not shown) [31g]: the inhibition at 10 µM at SIRT2 [2] (setting [4]) was 26.7%.

For `O=c1c2c3c(sc2ncn1Cc1ccccc1)CC(NCc1cncnc1)CC3` (stereo not shown) [22g], the inhibition at 10 µM at SIRT2 [2] (setting [4]) worked out at 17.5%.

On to `O=c1c2c3c(sc2ncn1Cc1ccccc1)CC(NCc1ccncc1)CC3` (stereo not shown) [20g], for which, on SIRT2 [2] (setting [4]), the inhibition at 10 µM came out at 32.6%.

For `N#C/C(=C\c1ccc(-c2cc(Cl)ccc2Cl)o1)C(=O)Nc1cccc2ncccc12` [AGK2], the “effect on α-tubulin acetylation level” value in assay [1] is given as “showed significant increase of α-tubulin acetylation at 10 to 50 μM”. The IC50 (commonly the concentration needed to halve the response being measured) in the assay with SIRT1 is above 50 µM.

As for `O=c1[nH]c(=S)[nH]c(-c2ccccc2)c1Cc1c(O)ccc2ccccc12` [Cambinol, cambinol], the IC50 was 51 µM in the assay with SIRT2 [3] and 56 µM in the assay with SIRT1.

Turning to `COc1cccc(Cn2cnc3sc4c(c3c2=O)CCC(NCc2ccncc2)C4)c1` (stereo not shown) [20h], the inhibition at 10 µM at SIRT2 [2] (setting [4]) turned out to be 57.6%.

On to `COc1ccc(CNC2CCc3c(sc4ncn(Cc5c(OC)ccc6ccccc56)c(=O)c34)C2)cn1` (stereo not shown) [23a], for which the inhibition at 10 µM at SIRT2 [2] (setting [4]) worked out at 87.9%.

As for `COc1ccc2ccccc2c1Cn1cnc2sc(CCN(C)C)c(C)c2c1=O` [57a], the “SIRT2 inhibitory activity (in words)” value at SIRT2 [2] is “inactive”.

Consider `COc1ccccc1CNC1CCc2c(sc3ncn(Cc4c(OC)ccc5ccccc45)c(=O)c23)C1` (stereo not shown) [16a], for which, at SIRT2 [2], the “increase in potency over 9a” value came out at 9 fold.

As to `COc1cccc(Cn2cnc3sc4c(c3c2=O)CCC(NCC2CCCO2)C4)c1` (stereo not shown) [25h], the inhibition at 10 µM on SIRT2 [2] (setting [4]) stood at 3.44%.

For the compound `O=c1c2c3c(sc2ncn1Cc1cccc(-c2ccccc2)c1)CC(NC1CCCc2ccccc21)CC3` (stereo not shown) [46i], the inhibition at 10 µM on SIRT2 [2] (setting [4]) is 21.6%.

With `COc1cccc(NC2CCc3c(sc4ncn(Cc5cccc(-c6ccccc6)c5)c(=O)c34)C2)c1` (stereo not shown) [37i], the inhibition at 10 µM at SIRT2 [2] (setting [4]) was determined as 29.6%.

Regarding `COc1ccc(CNC2CCc3c(sc4ncn(Cc5c(OC)ccc6ccccc56)c(=O)c34)C2)cc1` (stereo not shown) [18a], at SIRT2 [2], the “increase in potency over 9a” value came out at 32 fold.

For `CC1(C)Cc2c(-c3ccc(Cl)cc3)n[nH]c2C(C(N)=O)C1` (stereo not shown) [compound 7], the IC50 is 1.7 µM with SIRT2 [3] and 0.8 µM in the assay with SIRT1.

In the case of `COc1ccccc1NC1CCc2c(sc3ncn(Cc4cccc(-c5ccccc5)c4)c(=O)c23)C1` (stereo not shown) [35i], the inhibition at 10 µM on SIRT2 [2] (setting [4]) turned out to be 26.4%.

As for `COc1cccc(Cn2cnc3sc4c(c3c2=O)CCC(NCCc2cccnc2)C4)c1` (stereo not shown) [31h], the inhibition at 10 µM at SIRT2 [2] (setting [4]) was determined as 40.5%.

As to `COc1cccc(Cn2cnc3sc4c(c3c2=O)CCC(NCc2cncnc2)C4)c1` (stereo not shown) [22h], on SIRT2 [2] (setting [4]), the inhibition at 10 µM came out at 18.3%.

Take `COc1cccc(Cn2cnc3sc4c(c3c2=O)CCC(NCc2ccccn2)C4)c1` (stereo not shown) [21h]: the inhibition at 10 µM at SIRT2 [2] (setting [4]) stood at 18.2%.

“6-(2-Aminoethyl)-3-((2-methoxynaphthalen-1-yl) methyl)-5-methylthieno [2,3-d] pyrimidin-4(3H)-one [56a]”: on SIRT2 [2], the “SIRT2 inhibitory activity (in words)” value is “inactive”. For the same compound, on SIRT2 [2] (Table 2 middle value, 10 μM compound), the “SIRT2 percentage inhibition (at 10 μM)” value is on record as 25%. Moreover, on SIRT2 [2] (supplement CSV, SIRT2, 10uM), the “Inhibition@10uM” value was 24.87.

Turning to `O=c1c2c3c(sc2ncn1Cc1cccc2cccnc12)CC(NC1CCCC1)CC3` (stereo not shown) [41e], the inhibition at 10 µM on SIRT2 [2] (setting [4]) came to 30.5%.

For the compound `NC(=O)c1cccnc1` [Nicotinamide, nicotinamide], the values for the IC50 in the assay with SIRT2 [3] and in the assay with SIRT1 were […] and 85 µM, respectively.

For the compound `COc1ccccc1NC1CCc2c(sc3ncn(Cc4cccc5ccccc45)c(=O)c23)C1` (stereo not shown) [35b], at SIRT2 [2] (setting [4]), the inhibition at 10 µM was found to be 22.3%.

On to `COc1cccc(Cn2cnc3sc4c(c3c2=O)CCC(NCc2c(C)nn(C)c2C)C4)c1` (stereo not shown) [27h], for which the inhibition at 10 µM on SIRT2 [2] (setting [4]) was found to be 14.4%.
